Structures are written as SMILES.

The data set in a line: log P determination by HPLC on reverse-phase column (EEC Directive 79/831 Annex V.A8). The format is physicochemical. In short, it runs like this: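 Reverse-phase C18 HPLC at 43 °C, following EEC Directive 79/831 Annex V.A8. Acidic LC-MS used pH 2.7 eluents (0.1% aqueous formic acid and acetonitrile with 0.1% formic acid) on a 10–95% acetonitrile linear gradient. Log P was interpolated linearly from retention times against unbranched C3–C16 alkan-2-ones of known log P.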
Regarding `Cc1cc(I)cc(C(=O)NC2CC2)c1NC(=O)c1cc(Cn2nc(C(F)(F)F)cc2C(F)(F)F)nn1-c1ncccc1Cl` [I-1-231], the logP (commonly a log measure of how a compound divides between an organic and an aqueous phase) is reported as 4.01. For `Cc1cc(I)cc(C(=O)NCC(F)(F)F)c1NC(=O)c1cc(Cn2nc(C(F)(F)F)cc2C(F)(F)F)nn1-c1ncccc1Cl` [I-1-232], the logP was found to be 5.28. `Cc1cc(I)cc(C(=O)NC(C)C2CC2)c1NC(=O)c1cc(Cn2nc(C(F)(F)F)cc2C(F)(F)F)nn1-c1ncccc1Cl` (stereo not shown) [I-1-233]: the logP was found to be 4.55.

In turn, `Cc1cc(I)cc(C(N)=O)c1NC(=O)c1cc(Cn2nc(C(F)(F)F)cc2C(F)(F)F)nn1-c1ncccc1Cl` [I-1-234] showed a log partition coefficient (logP) of 3.56.

Consider `Cc1cc(I)cc(C(=O)NCC2CC2)c1NC(=O)c1cc(Cn2nc(C(F)(F)F)cc2C(F)(F)F)nn1-c1ncccc1Cl` [I-1-235], for which the logP worked out at 4.34. `Cc1cc(I)cc(C(=O)NC(C2CC2)C2CC2)c1NC(=O)c1cc(Cn2nc(C(F)(F)F)cc2C(F)(F)F)nn1-c1ncccc1Cl` [I-1-236] returned a logP of 4.80.

On to `CNC(=O)c1cc(I)cc(C)c1NC(=O)c1cc(Cn2nc(C(F)(F)F)nc2C(F)(F)F)nn1-c1ncccc1Cl` [I-1-237], for which the logP worked out at 3.60. As for `Cc1cc(I)cc(C(=O)NC(C)C)c1NC(=O)c1cc(Cn2nc(C(F)(F)F)nc2C(F)(F)F)nn1-c1ncccc1Cl` [I-1-238], the figure is 4.06. The figure for `CNC(=O)c1cc(I)cc(C)c1NC(=O)c1cc(Cn2cc(C(F)(F)C(F)(F)F)c(C(F)(F)C(F)(F)F)n2)nn1-c1ncccc1Cl` [I-1-239] is 4.51; for `Cc1cc(I)cc(C(=O)NC(C)C)c1NC(=O)c1cc(Cn2cc(C(F)(F)C(F)(F)F)c(C(F)(F)C(F)(F)F)n2)nn1-c1ncccc1Cl` [I-1-240] it is 4.96; for `Cc1cc(I)cc(C(=O)NCC#N)c1NC(=O)c1cc(Cn2nc(C(F)(F)F)cc2C(F)(F)F)nn1-c1ncccc1Cl` [I-1-241] it is 3.73. For the compound `Cc1cc(I)cc(C(=O)NC(C)C)c1NC(=O)c1cc(Cn2cc(Cl)c(C(F)(F)C(F)(F)F)n2)nn1-c1ncccc1Cl` [I-1-242], the logP was determined as 4.40. `CNC(=O)c1cc(I)cc(C)c1NC(=O)c1cc(Cn2cc(Cl)c(C(F)(F)C(F)(F)F)n2)nn1-c1ncccc1Cl` [I-1-243] gave a logP of 3.96. As for `CCNC(=O)c1cc(I)cc(C)c1NC(=O)c1cc(Cn2nc(C(F)(F)F)nc2C(F)(F)F)nn1-c1ncccc1Cl` [I-1-244], the figure is 3.83; as for `Cc1cc(I)cc(C(=O)NCC#N)c1NC(=O)c1cc(Cn2nc(C(F)(F)F)nc2C(F)(F)F)nn1-c1ncccc1Cl` [I-1-245], 3.53.

In the case of `Cc1cc(I)cc(C(=O)NCC#N)c1NC(=O)c1cc(Cn2cc(Cl)c(C(F)(F)C(F)(F)F)n2)nn1-c1ncccc1Cl` [I-1-246], the logP is given as 3.85. In the case of `CNC(=O)c1cc(I)cc(C)c1NC(=O)c1cc(Cn2ccc(C(F)(F)F)n2)nn1-c1ncccc1Cl` [I-1-247], the logP is recorded as 3.05. For the compound `Cc1cc(I)cc(C(=O)NC(C)C)c1NC(=O)c1cc(Cn2ccc(C(F)(F)F)n2)nn1-c1ncccc1Cl` [I-1-248], the logP came to 3.51. Consider `Cc1cc(I)cc(C(=O)NC2CC2)c1NC(=O)c1cc(Cn2ccc(C(F)(F)F)n2)nn1-c1ncccc1Cl` [I-1-249], for which the logP is 3.27. The figure for `CCNC(=O)c1cc(I)cc(C)c1NC(=O)c1cc(Cn2ccc(C(F)(F)F)n2)nn1-c1ncccc1Cl` [I-1-250] is 3.28; for `Cc1cc(I)cc(C(=O)NCC#N)c1NC(=O)c1cc(Cn2ccc(C(F)(F)F)n2)nn1-c1ncccc1Cl` [I-1-251] it is 3.04; for `Cc1cc(I)cc(C(=O)NC2CC2)c1NC(=O)c1cc(Cn2nc(C(F)(F)F)nc2C(F)(F)F)nn1-c1ncccc1Cl` [I-1-252] it is 3.81.

For `Cc1cc(I)cc(C(=O)NCC2CC2)c1NC(=O)c1cc(Cn2nc(C(F)(F)F)nc2C(F)(F)F)nn1-c1ncccc1Cl` [I-1-253], the logP turned out to be 4.13. Regarding `Cc1cc(I)cc(C(=O)NCC2CC2)c1NC(=O)c1cc(Cn2cc(Cl)c(C(F)(F)C(F)(F)F)n2)nn1-c1ncccc1Cl` [I-1-254], the logP turned out to be 4.47. As to `Cc1cc(I)cc(C(=O)N(C)C)c1NC(=O)c1cc(Cn2nc(C(F)(F)F)cc2C(F)(F)F)nn1-c1ncccc1Cl` [I-1-256], the logP is on record as 3.84. The figure for `CNC(=O)c1cc(Cl)cc(C)c1NC(=O)c1cc(Cn2nc(C(F)F)c([N+](=O)[O-])c2C(F)F)nn1-c1ncccc1Cl` [I-1-257] is 2.92. As for `Cc1cc(Cl)cc(C(=O)NC(C)C)c1NC(=O)c1cc(Cn2nc(C(F)F)c([N+](=O)[O-])c2C(F)F)nn1-c1ncccc1Cl` [I-1-258], the logP is reported as 3.32. The figure for `CC(C)NC(=O)c1cc(Cl)cc(Cl)c1NC(=O)c1cc(Cn2nc(C(F)F)c([N+](=O)[O-])c2C(F)F)nn1-c1ncccc1Cl` [I-1-259] is 3.27; for `Cc1cc(Cl)cc(C(=O)NC2CC2)c1NC(=O)c1cc(Cn2nc(C(F)F)c([N+](=O)[O-])c2C(F)F)nn1-c1ncccc1Cl` [I-1-260] it is 3.12; for `O=C(NC1CC1)c1cc(Cl)cc(Cl)c1NC(=O)c1cc(Cn2nc(C(F)F)c([N+](=O)[O-])c2C(F)F)nn1-c1ncccc1Cl` [I-1-261] it is 3.08.

As to `CSc1ncn(Cc2cc(C(=O)Nc3c(C)cc(Cl)cc3C(=O)NC(C)C)n(-c3ncccc3Cl)n2)n1` [I-1-262], the logP worked out at 2.31. The figure for `CSc1ncn(Cc2cc(C(=O)Nc3c(C)cc(Cl)cc3C(=O)NC3CC3)n(-c3ncccc3Cl)n2)n1` [I-1-263] is 2.13.

Regarding `CNC(=O)c1cc(Cl)cc(C)c1NC(=O)c1cc(Cn2cnc(SC)n2)nn1-c1ncccc1Cl` [I-1-265], the logP turned out to be 1.94. In turn, `CNC(=O)c1cc(Cl)cc(Cl)c1NC(=O)c1cc(Cn2nc(C(F)F)c([N+](=O)[O-])c2C(F)F)nn1-c1ncccc1Cl` [I-1-266] had a logP of 2.99. As for `Cc1cc(I)cc(C(=O)NC(C)C)c1NC(=O)c1cc(Cn2nc(C(F)F)c([N+](=O)[O-])c2C(F)F)nn1-c1ncccc1Cl` [I-1-267], the figure is 3.67; as for `Cc1cc(I)cc(C(=O)NC2CC2)c1NC(=O)c1cc(Cn2nc(C(F)F)c([N+](=O)[O-])c2C(F)F)nn1-c1ncccc1Cl` [I-1-268], 3.44. The figure for `Cc1cc(Cl)cc(C(=O)NC(C)C)c1NC(=O)c1cc(Cn2nc(C)c(Br)c2C)nn1-c1ncccc1Cl` [I-1-269] is 3.4; for `CNC(=O)c1cc(Cl)cc(C)c1NC(=O)c1cc(Cn2nc(C)c(Br)c2C)nn1-c1ncccc1Cl` [I-1-270] it is 2.95. Consider `Cc1cc(Cl)cc(C(=O)NC2CC2)c1NC(=O)c1cc(Cn2nc(C)c(Br)c2C)nn1-c1ncccc1Cl` [I-1-271], for which the logP was found to be 3.17. The figure for `Cc1cc(I)cc(C(N)=O)c1NC(=O)c1cc(Cn2nc(C(F)(F)F)nc2C(F)(F)F)nn1-c1ncccc1Cl` [I-1-272] is 3.38; for `Cc1cc(I)cc(C(N)=O)c1NC(=O)c1cc(Cn2ccc(C(F)(F)F)n2)nn1-c1ncccc1Cl` [I-1-273] it is 2.84; for `CCNC(=O)c1cc(I)cc(C)c1NC(=O)c1cc(Cn2cc(C(F)(F)C(F)(F)F)c(C(F)(F)C(F)(F)F)n2)nn1-c1ncccc1Cl` [I-1-274] it is 4.74. `Cc1cc(I)cc(C(=O)NC2CC2)c1NC(=O)c1cc(Cn2cc(C(F)(F)C(F)(F)F)c(C(F)(F)C(F)(F)F)n2)nn1-c1ncccc1Cl` [I-1-275] yielded a logP of 4.71. The figure for `Cc1cc(I)cc(C(=O)NC2CC2)c1NC(=O)c1cc(Cn2cc(Cl)c(C(F)(F)C(F)(F)F)n2)nn1-c1ncccc1Cl` [I-1-276] is 4.15; for `CCNC(=O)c1cc(I)cc(C)c1NC(=O)c1cc(Cn2cc(Cl)c(C(F)(F)C(F)(F)F)n2)nn1-c1ncccc1Cl` [I-1-277] it is 4.17. `CNC(=O)c1cc(I)cc(C)c1NC(=O)c1cc(Cn2nc(C(F)F)c([N+](=O)[O-])c2C(F)F)nn1-c1ncccc1Cl` [I-1-278] came in with a logP of 3.25. Take `Cc1cc(I)cc(C(=O)NC2CCCC2)c1NC(=O)c1cc(Cn2nc(C(F)(F)F)nc2C(F)(F)F)nn1-c1ncccc1Cl` [I-1-279]: the log partition coefficient (logP) is 4.47. For the compound `Cc1cc(I)cc(C(=O)NC2CCCCCCCCCCC2)c1NC(=O)c1cc(Cn2nc(C(F)(F)F)nc2C(F)(F)F)nn1-c1ncccc1Cl` [I-1-280], the logP was 6.56. As for `Cc1cc(I)cc(C(=O)NC2CCCCC2)c1NC(=O)c1cc(Cn2nc(C(F)(F)F)nc2C(F)(F)F)nn1-c1ncccc1Cl` [I-1-281], the figure is 4.54; as for `Cc1cc(I)cc(C(=O)NC2CCC2)c1NC(=O)c1cc(Cn2nc(C(F)(F)F)nc2C(F)(F)F)nn1-c1ncccc1Cl` [I-1-282], 4.18. As for `CCNC(=O)c1cc(I)cc(C)c1NC(=O)c1cc(Cn2nc(C(F)(F)F)nc2C(F)(F)F)nn1-c1ncccc1Cl` [I-1-283], the figure is 3.89; as for `Cc1cc(I)cc(C(=O)NC(C)C2CC2)c1NC(=O)c1cc(Cn2nc(C(F)(F)F)nc2C(F)(F)F)nn1-c1ncccc1Cl` (stereo not shown) [I-1-284], 4.16; as for `Cc1cc(I)cc(C(=O)NC(C)(C)C)c1NC(=O)c1cc(Cn2nc(C(F)(F)F)nc2C(F)(F)F)nn1-c1ncccc1Cl` [I-1-285], 4.23.

`Cc1cc(I)cc(C(=O)NC(C2CC2)C2CC2)c1NC(=O)c1cc(Cn2nc(C(F)(F)F)nc2C(F)(F)F)nn1-c1ncccc1Cl` [I-1-286] displayed a logP of 4.52.

Compound `Cc1cc(I)cc(C(=O)NC(C)C2CC2)c1NC(=O)c1cc(Cn2cc(Cl)c(C(F)(F)C(F)(F)F)n2)nn1-c1ncccc1Cl` (stereo not shown) [I-1-287] displayed a logP of 4.69. With `Cc1cc(I)cc(C(=O)NC(C2CC2)C2CC2)c1NC(=O)c1cc(Cn2cc(Cl)c(C(F)(F)C(F)(F)F)n2)nn1-c1ncccc1Cl` [I-1-288], the logP is given as 4.79. The figure for `Cc1cc(I)cc(C(=O)NC(C)(C)C)c1NC(=O)c1cc(Cn2cc(Cl)c(C(F)(F)C(F)(F)F)n2)nn1-c1ncccc1Cl` [I-1-289] is 4.63; for `CNC(=O)c1cc(Cl)cc(Cl)c1NC(=O)c1cc(Cn2nc(C(F)(F)F)nc2C(F)(F)F)nn1-c1ncccc1Cl` [I-1-290] it is 3.40.

These data come from patent US8101550B2, “Anthranilic acid diamide derivative with hetero-aromatic and hetero-cyclic substituents” (Bayer Cropscience AG, priority 2006, dated 2012).
